Experimental findings from patent US8778964B2, “Hydroxy-substituted imidazo[1,2-a]-pyridinecarboxamides and their use” (Bayer Pharma Aktiengesellschaft, priority 2012, dated 2014) are described below.

Where a name gives a salt, the structure may show the parent alone.

For the experiment, the system named is recombinant guanylate cyclase reporter cell line. Briefly: Action on recombinant guanylate cyclase reporter cell line (MEC). The settings on record: in some cases mean values obtained from individual determinations. Type of experiment: cell-based. The essentials:
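Cell-based reporter assay with recombinant guanylate cyclase expressed in a reporter cell line, per a published method. Activity reported as minimal effective concentration (MEC), in some cases as the mean of individual determinations.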

On to `Cc1nc2c(OCc3c(F)cccc3F)cccn2c1C(=O)N[C@@H](CO)CCCO` [Example 130, 8-[(2,6-difluorobenzyl)oxy]-N-[(2R)-1,5-dihydroxypentan-2-yl]-2-methylimidazo[1,2-a]pyridine-3-carboxamide], for which the minimal effective concentration stood at 1 µM.
For `CCCC[C@H](CO)NC(=O)c1c(C)nc2c(OCc3c(F)cccc3F)cc(Cl)cn12` [Example 131, 6-chloro-8-[(2,6-difluorobenzyl)oxy]-N-[(2R)-1-hydroxyhexan-2-yl]-2-methylimidazo[1,2-a]pyridine-3-carboxamide], the minimal effective concentration is 0.01 µM.
Turning to `CCCC[C@H](CO)NC(=O)c1c(C)nc2c(OCc3c(F)cccc3F)cc(F)cn12` [Example 132, 8-[(2,6-difluorobenzyl)oxy]-6-fluoro-N-[(2R)-1-hydroxyhexan-2-yl]-2-methylimidazo[1,2-a]pyridine-3-carboxamide], the minimal effective concentration came to 0.03 µM.
Take `CCCC[C@H](CO)NC(=O)c1c(C)nc2c(OCc3c(F)cccc3F)cc(C)cn12` [Example 133, 8-[(2,6-difluorobenzyl)oxy]-N-[(2R)-1-hydroxyhexan-2-yl]-2,6-dimethylimidazo[1,2-a]pyridine-3-carboxamide]: the minimal effective concentration is 0.01 µM.
Consider `CCCC[C@H](CO)NC(=O)c1c(C2CC2)nc2c(OCc3c(F)cccc3F)cccn12` [Example 134, 2-cyclopropyl-8-[(2,6-difluorobenzyl)oxy]-N-[(2R)-1-hydroxyhexan-2-yl]imidazo[1,2-a]-pyridine-3-carboxamide], for which the minimal effective concentration came out at 0.3 µM.
For the compound `Cc1nc2c(OCc3c(F)cccc3F)cccn2c1C(=O)N[C@@H](CO)CC[C@@H](O)C(F)(F)F` [Example 135, 8-[(2,6-difluorobenzyl)oxy]-2-methyl-N-[(2R, 5R)-6,6,6-trifluoro-1,5-dihydroxyhexan-2-yl]imidazo[1,2-a]pyridine-3-carboxamide trifluoroacetate (1:1)], the minimal effective concentration is 0.1 µM.
`Cc1nc2c(OCc3c(F)cccc3F)cccn2c1C(=O)NCC(O)COc1ccc(F)cc1` (stereo not drawn) [Example 136, 8-[(2,6-difluorobenzyl)oxy]-N-[3-(4-fluorophenoxy)-2-hydroxypropyl]-2-methylimidzao[1,2-a]pyridine-3-carboxamide]: the minimal effective concentration was 3 µM.
For `Cc1nc2c(OCc3c(F)cccc3F)cccn2c1C(=O)NCC(O)COc1ccccc1` (stereo not drawn) [Example 137, 8-[(2,6-difluorobenzyl)oxy]-N-(2-hydroxy-3-phenoxypropyl)-2-methylimidazo[1,2-a]-pyridine-3-carboxamide], the minimal effective concentration is 3 µM.
The figure for `CCCC[C@@H](NC(=O)c1c(C)nc2c(OCc3c(F)cccc3F)cccn12)C(C)O` (stereo partly drawn) [Example 139, 8-[(2,6-Difluorobenzyl)oxy]-N-[(3R)-2-hydroxyheptan-3-yl]-2-methylimidazo[1,2-a]pyridine-3-carboxamide] is 0.03 µM; for `CCCC[C@@H](NC(=O)c1c(C)nc2c(OCc3c(F)cccc3F)cccn12)C(C)O` (stereo partly drawn) [Example 140, 8-[(2,6-Difluorobenzyl)oxy]-N-[(3R)-2-hydroxyheptan-3-yl]-2-methylimidazo[1,2-a]pyridine-3-carboxamide] it is 0.03 µM; for `CCCC[C@@H](NC(=O)c1c(C)nc2c(OCc3c(F)cccc3F)cccn12)C(O)C(F)(F)F` (stereo partly drawn) [Example 141, 8-[(2,6-Difluorobenzyl)oxy]-2-methyl-N-[(3R)-1,1,1-trifluoro-2-hydroxyheptan-3-yl]imidazo[1,2-a]pyridine-3-carboxamide] it is 0.1 µM.
Regarding `CCCC[C@@H](NC(=O)c1c(C)nc2c(OCc3c(F)cccc3F)cccn12)C(O)C(F)(F)F` (stereo partly drawn) [Example 142, 8-[(2,6-Difluorobenzyl)oxy]-2-methyl-N-[(3R)-1,1,1-trifluoro-2-hydroxyheptan-3-yl]imidazo[1,2-a]pyridine-3-carboxamide], the minimal effective concentration is on record as 0.1 µM.
Take `CCCC[C@@H](NC(=O)c1c(C)nc2c(OCc3c(F)cccc3F)cccn12)C(C)(C)O` [Example 147, 8-[(2,6-Difluorobenzyl)oxy]-N-[(3R)-2-hydroxy-2-methylheptan-3-yl]-2-methylimidazo[1,2-a]-pyridine-3-carboxamide]: the minimal effective concentration was 0.1 µM.
In the case of `Cc1nc2c(OCc3c(F)cccc3F)cccn2c1C(=O)NCCC(C)(C)O` [Example 153, 8-[(2,6-difluorobenzyl)oxy]-N-(3-hydroxy-3-methylbutyl)-2-methylimidazo[1,2-a]pyridine-3-carboxamide] it was 0.3 µM; in that of `CCCC[C@H](CO)NC(=O)c1c(C)nc2c(OCc3c(F)cccc3F)cc(C#N)cn12` [Example 157, 6-Cyano-8-[(2,6-difluorobenzyl)oxy]-N-[(2R)-1-hydroxyhexan-2-yl]-2-methylimidazo[1,2-a]-pyridine-3-carboxamide], 0.065 µM.
For `CCCC[C@H](CO)NC(=O)c1c(C)nc2c(OCCC(C)C)cccn12` [Example 159, N-[(2R)-1-Hydroxyhexan-2-yl]-2-methyl-8-(3-methylbutoxy)imidazo[1,2-a]pyridine-3-carboxamide], the minimal effective concentration came out at 1 µM.
Regarding `COC(=O)[C@H](CO)NC(=O)c1c(C)nc2c(OCc3c(F)cccc3F)cccn12` [Example 164, Methyl N-({8-[(2,6-difluorobenzyl)oxy]-2-methylimidazo[1,2-a]pyridin-3-yl}carbonyl)-L-serinate], the minimal effective concentration was 0.2 µM.
With `Cc1nc2c(OCc3c(F)cccc3F)cccn2c1C(=O)N[C@@H](CO)C(C)(C)O` [Example 165, 8-[(2,6-Difluorobenzyl)oxy]-N-[(2S)-1,3-dihydroxy-3-methylbutan-2-yl]-2-methylimidazo[1,2-a]-pyridine-3-carboxamide], the minimal effective concentration worked out at 1 µM.
In the case of `CCCC[C@H](CO)NC(=O)c1c(C)nc2c(OCCC(C)C)cc(C)cn12` [Example 166, N-[(2R)-1-Hydroxyhexan-2-yl]-2,6-dimethyl-8-(3-methylbutoxy)imidazo[1,2-a]pyridine-3-carboxamide], the minimal effective concentration came to 1 µM.
For the compound `CCCCC(NC(=O)c1c(C)nc2c(OCCC(C)C)cc(C)cn12)C(C)(C)O` (stereo not drawn) [Example 167, ent-N-(2-Hydroxy-2-methylheptan-3-yl)-2,6-dimethyl-8-(3-methylbutoxy)imidazo[1,2-a]pyridine-3-carboxamide], the minimal effective concentration turned out to be 2 µM.
For `CCCC[C@H](CO)NC(=O)c1c(C)nc2c(OCCC(C(F)(F)F)C(F)(F)F)cc(C)cn12` [Example 169, N-[(2R)-1-Hydroxyhexan-2-yl]-2,6-dimethyl-8-[4,4,4-trifluoro-3-(trifluoromethyl)butoxy]imidazo-[1,2-a]pyridine-3-carboxamide], the minimal effective concentration was determined as 0.3 µM.
In the case of `Cc1cc(OCCC(C(F)(F)F)C(F)(F)F)c2nc(C)c(C(=O)NC3c4ccccc4CC3O)n2c1` (stereo not drawn) [Example 172, N-(2-Hydroxy-2,3-dihydro-1H-inden-1-yl)-2,6-dimethyl-8-[4,4,4-trifluoro-3-(trifluoromethyl)-butoxy]imidazo[1,2-a]pyridine-3-carboxamide], the minimal effective concentration came to 1 µM.
As to `Cc1cc(OCCC(C(F)(F)F)C(F)(F)F)c2nc(C)c(C(=O)NC3CCCC3O)n2c1` (stereo not drawn) [Example 173, N-(2-hydroxycyclopentyl)-2,6-dimethyl-8-[4,4,4-trifluoro-3-(trifluoromethyl)butoxy]imidazo[1,2-a]pyridine-3-carboxamide], the minimal effective concentration was found to be 3 µM.
Turning to `CCCC[C@H](CO)NC(=O)c1c(C)nc2c(OCc3c(F)cccc3F)c(F)ccn12` [Example 177, 8-[(2,6-Difluorobenzyl)oxy]-7-fluoro-N-[(2R)-1-hydroxyhexan-2-yl]-2-methylimidazo[1,2-a]-pyridine-3-carboxamide], the minimal effective concentration was found to be 1 µM.

What is called minimal effective concentration is the smallest amount tested that counted as effective.
